Values after ≈ are worked out from the molar mass of the structure shown.

As a reminder, the solubility (kinetic) is the concentration staying in solution when a stock, usually in DMSO, is diluted into the medium.

For the data set the following is noted: buffer; pH 7.4; 200.0 µM.
For the compound `O=C1Nc2ccc(Br)cc2C1=C1CCCCC1`, the kinetic solubility was determined as 7.4 µg/mL (≈ 25.3 µM).

For `Cc1cccnc1NC(=O)CCNC(=O)c1ccccc1Cl`, the kinetic solubility is > 47.7 µg/mL.

In turn, `CCOc1ccc(NC(=O)c2ccccc2NC(=O)c2cccnc2)cc1` showed a kinetic solubility of 1.4 µg/mL (≈ 3.87 µM).

For the compound `COC(=O)c1cc(S(=O)(=O)N2CCCC(C)C2)c[nH]1` (stereo unspecified), the solubility (kinetic) is > 43 µg/mL.

`Cc1ccc(NC(=O)CCCn2c(=O)oc3ccccc32)c(O)c1`: the kinetic solubility amounted to 12.6 µg/mL (≈ 38.6 µM).

Take `CNS(=O)(=O)c1cccc(C(=O)NCC(C)(C)N2CCCCC2)c1`: the kinetic solubility stood at 48.8 µg/mL (≈ 138 µM).

With `CC1CCCN(CC(O)COc2ccc(-c3ccccc3)cc2)C1` (stereo unspecified), the kinetic solubility was 44.4 µg/mL (≈ 136 µM).

Compound `Oc1ccc(Nc2nc(-c3ccccc3)nc3ccccc23)cc1` had a kinetic solubility of 2.3 µg/mL (≈ 7.34 µM).

In the case of `CC(C)(C)NC(=O)COC(=O)c1cc(Cl)ccc1[N+](=O)[O-]`, the solubility (kinetic) was > 47.2 µg/mL.

`COc1ccccc1-n1c(SCC(=O)O)nc2sc3c(c2c1=O)CCC3` registered a kinetic solubility of 41.8 µg/mL (≈ 108 µM).

`CC(NC(=O)COc1cccnc1[N+](=O)[O-])c1ccc(Cl)cc1Cl` (stereo unspecified) returned a kinetic solubility of 44.1 µg/mL (≈ 119 µM). The solubility kinetic values of the last two compounds are within 1.5-fold of each other.

`O=C(NCC(=O)N1CCN(S(=O)(=O)c2ccc3c(c2)OCCO3)CC1)c1ccccc1F`: the kinetic solubility is 10.2 µg/mL (≈ 22 µM).

As for `CC(C)CC(=O)Nc1ccc(Cc2ccncc2)cc1`, the solubility (kinetic) was > 40.3 µg/mL.

As for `CCOCCCNC(=O)C1CCN(S(=O)(=O)N2CCCC2)CC1`, the solubility (kinetic) is > 52.1 µg/mL.

As for `CC12CCC(C(=O)N(CC3CO3)C1=O)C2(C)C` (stereo unspecified), the kinetic solubility was > 35.6 µg/mL.

The compound `CNC(=S)N(CCc1c(C)[nH]c2ccccc12)Cc1ccco1` returned a kinetic solubility of 1.5 µg/mL (≈ 4.58 µM).

For the compound `N#Cc1ccc(CN2CCN(C(=O)CNS(=O)(=O)c3ccc4c(c3)OCCCO4)CC2)cc1`, the solubility (kinetic) stood at 35.3 µg/mL (≈ 75 µM).

Compound `CC(C)Cn1c(=S)[nH]c2ccccc2c1=O` yielded a solubility (kinetic) of 1.6 µg/mL (≈ 6.83 µM). Against the preceding compound, the solubility kinetic is about 22-fold lower.

Consider `Cc1ccc(NC(=O)Nc2ccc(F)cc2F)c(OC(F)F)c1`, for which the solubility (kinetic) was < 0.4 µg/mL.

The compound `Cc1ccc(/C=C/S(=O)(=O)NCCC(=O)NCc2ccccc2F)cc1` gave a kinetic solubility of 9 µg/mL (≈ 23.9 µM).

In the case of `Cc1ccc2c(Cl)cc(Cl)c(OCC(=O)O)c2n1`, the kinetic solubility is > 42.9 µg/mL.

On to `c1ccc2c(c1)CSc1ccccc1N2`, for which the solubility (kinetic) was determined as 6.8 µg/mL (≈ 31.9 µM).

Regarding `Cc1cnc(C(=O)OCC(=O)N(CC(C)C)C2CCS(=O)(=O)C2)cn1` (stereo unspecified), the kinetic solubility is > 55.4 µg/mL.

`Brc1cnc2nc(SC/C=C/c3ccccc3)[nH]c2c1` yielded a kinetic solubility of 0.3 µg/mL (≈ 0.866 µM).

`Cc1ccc(NC(=O)C(=O)c2ccc(C)cc2)cc1`: the kinetic solubility is 0.7 µg/mL (≈ 2.76 µM).

Regarding `COc1ccc(C(=O)NCCN2CCOCC2)cc1[N+](=O)[O-]`, the solubility (kinetic) was > 46.4 µg/mL.

As to `Cc1ccc(NC(=O)COc2cccc3c2OC(C)(C)C3)c(O)c1`, the solubility (kinetic) was 6.8 µg/mL (≈ 20.8 µM).

Consider `O=C(OCC(=O)N1CCOCC1)c1ccccc1OCc1ccccc1Cl`, for which the kinetic solubility came to 54.9 µg/mL (≈ 141 µM).

For the compound `CCc1ccc(CCC(=O)Nc2ccc(Cl)cc2)o1`, the solubility (kinetic) is 8.1 µg/mL (≈ 29.2 µM).

Compound `Cc1cc(C)c(S(=O)(=O)NC2CC(C)(C)NC(C)(C)C2)cc1Br` had a solubility (kinetic) of 12.5 µg/mL (≈ 31 µM). Against the preceding compound, the solubility kinetic is about 1.5-fold higher.

On to `C/C=C/C(=O)OCC(=O)Nc1ccc(OC)c(OC)c1`, for which the solubility (kinetic) was > 41.9 µg/mL.

As to `CCOC(=O)c1cc(=O)[nH]c2ccccc12`, the solubility (kinetic) was found to be 30.6 µg/mL (≈ 141 µM).

`CCCNC(=O)[C@H](C)NC(=O)c1ccc(Br)cc1`: the kinetic solubility is > 47 µg/mL.

Turning to `O=C(NCCc1cccc(Cl)c1)c1cccs1`, the solubility (kinetic) was > 39.9 µg/mL.

Turning to `CCOC(=O)N1CCN(C(=O)Cc2ccccc2[N+](=O)[O-])CC1`, the solubility (kinetic) was > 48.2 µg/mL.

For `CN1CCN(Cc2nnc(-c3ccccc3)o2)CC1`, the kinetic solubility was > 38.7 µg/mL.

With `CCC1(c2ccccc2)NC(=O)N(CC(=O)N2CCc3ccccc32)C1=O` (stereo unspecified), the solubility (kinetic) was 6.8 µg/mL (≈ 18.7 µM).

Regarding `O=C1C2CCCN2C(c2ccco2)N1c1ccc(F)cc1` (stereo unspecified), the kinetic solubility is > 42.9 µg/mL.

In turn, `CCN(CC)C(=O)C1CCCN(C/C=C/c2ccccc2[N+](=O)[O-])C1` (stereo unspecified) showed a solubility (kinetic) of 41.7 µg/mL (≈ 121 µM).

With `COc1ccc(C(C)=O)cc1Cn1c(=O)cc(C)[nH]c1=O`, the solubility (kinetic) was > 43.2 µg/mL.

For `Cc1ccnc(NC(=O)CNC(=O)c2ccc(C)s2)c1`, the kinetic solubility is > 43.4 µg/mL.

Compound `COc1ccc(Nc2ncnc3sccc23)cc1` displayed a solubility (kinetic) of 36 µg/mL (≈ 140 µM).

`O=C1/C(=C/c2cccs2)SC(=S)N1c1cccc(O)c1` showed a kinetic solubility of 1 µg/mL (≈ 3.13 µM).

`Cc1cccc(-c2nc(C)cc(=O)[nH]2)c1`: the solubility (kinetic) was > 30 µg/mL.

As for `CC(=O)N1CCN(c2ccc([N+](=O)[O-])c(NCc3cccnc3)c2)CC1`, the kinetic solubility is > 53.3 µg/mL.

`COC(=O)c1ccccc1NC(=O)CNC(=O)c1ccc(OC)cc1` registered a kinetic solubility of 45 µg/mL (≈ 131 µM).

`COc1ccc(OC(C)C(=O)NC2CCCCCCC2)cc1` (stereo unspecified): the solubility (kinetic) came to 45.1 µg/mL (≈ 148 µM).

With `O=C(Oc1ccc([N+](=O)[O-])cc1)C1CC(=O)N(c2ccc3c(c2)OCCO3)C1` (stereo unspecified), the kinetic solubility was > 57.7 µg/mL.

In the case of `Cc1cccnc1NC(=O)c1sc2ccccc2c1Cl`, the kinetic solubility is 3 µg/mL (≈ 9.91 µM).

On to `CNc1snc(C)c1C(=O)OC(C)C(=O)Nc1ccc(F)cc1` (stereo unspecified), for which the kinetic solubility was > 50.6 µg/mL.

The compound `Cc1ccc(C(=O)COC(=O)c2cn3ccccc3n2)cc1` showed a kinetic solubility of 4.1 µg/mL (≈ 13.9 µM).

The values are drawn from PubChem BioAssay AID1996.
